Reference: the NIST ThermoML archive (doi:10.1021/je060271a)
Numbers after ± are expanded uncertainties.

Conditions: 303.15 K, Liquid, Vibrating tube method

CCCCC(=O)OCC(COC(=O)CCCC)(COC(=O)CCCC)COC(=O)CCCC [pentaerythritol tetrapentanoate]
Conditions | mass density [kg/m3]
18990 kPa | 1022.6 ± 1.2
19023 kPa | 1022.8 ± 1.2
19056 kPa | 1022.6 ± 1.2
19094 kPa | 1022.8 ± 1.2
19127 kPa | 1022.7 ± 1.2
19159 kPa | 1022.9 ± 1.2
19198 kPa | 1022.9 ± 1.2
19232 kPa | 1022.8 ± 1.2
19265 kPa | 1022.8 ± 1.2
19304 kPa | 1022.8 ± 1.2
19338 kPa | 1022.9 ± 1.2
19372 kPa | 1023 ± 1.2
19412 kPa | 1022.9 ± 1.2
19446 kPa | 1022.9 ± 1.2
19480 kPa | 1023 ± 1.2
19515 kPa | 1023 ± 1.2
19556 kPa | 1023 ± 1.2
19590 kPa | 1023.1 ± 1.2
19630 kPa | 1023 ± 1.2
19702 kPa | 1023.1 ± 1.2
19736 kPa | 1023.1 ± 1.2
19778 kPa | 1023.2 ± 1.2
19813 kPa | 1023.2 ± 1.2
19856 kPa | 1023.2 ± 1.2
19893 kPa | 1023.1 ± 1.2
19930 kPa | 1023.2 ± 1.2
19968 kPa | 1023.2 ± 1.2
20013 kPa | 1023.3 ± 1.2
20051 kPa | 1023.4 ± 1.2
20090 kPa | 1023.2 ± 1.2
20134 kPa | 1023.3 ± 1.2
20161 kPa | 1023.4 ± 1.2
20186 kPa | 1023.3 ± 1.2
20215 kPa | 1023.3 ± 1.2
20240 kPa | 1023.4 ± 1.2
20265 kPa | 1023.5 ± 1.2
20290 kPa | 1023.6 ± 1.2
20321 kPa | 1023.4 ± 1.2
20346 kPa | 1023.4 ± 1.2
20370 kPa | 1023.5 ± 1.2
20396 kPa | 1023.5 ± 1.2
20425 kPa | 1023.6 ± 1.2
20451 kPa | 1023.5 ± 1.2
20481 kPa | 1023.6 ± 1.2
20506 kPa | 1023.5 ± 1.2
20532 kPa | 1023.6 ± 1.2
20561 kPa | 1023.6 ± 1.2
20587 kPa | 1023.6 ± 1.2
20613 kPa | 1023.7 ± 1.2
20644 kPa | 1023.6 ± 1.2
20671 kPa | 1023.6 ± 1.2
20697 kPa | 1023.6 ± 1.2
20723 kPa | 1023.7 ± 1.2
20754 kPa | 1023.6 ± 1.2
20780 kPa | 1023.7 ± 1.2
20806 kPa | 1023.8 ± 1.2
20837 kPa | 1023.8 ± 1.2
20864 kPa | 1023.9 ± 1.2
20890 kPa | 1023.7 ± 1.2
20920 kPa | 1023.8 ± 1.2
20947 kPa | 1023.7 ± 1.2
20974 kPa | 1023.8 ± 1.2
21007 kPa | 1023.7 ± 1.2
21030 kPa | 1023.9 ± 1.2
21062 kPa | 1023.9 ± 1.2
21089 kPa | 1023.8 ± 1.2
21122 kPa | 1023.8 ± 1.2
21149 kPa | 1023.9 ± 1.2
21176 kPa | 1024 ± 1.2
21208 kPa | 1024 ± 1.2
21236 kPa | 1024 ± 1.2
21263 kPa | 1023.8 ± 1.2
21291 kPa | 1024 ± 1.2
21324 kPa | 1024.1 ± 1.2
21351 kPa | 1024.1 ± 1.2
21384 kPa | 1024.1 ± 1.2
21412 kPa | 1024 ± 1.2
21440 kPa | 1024.1 ± 1.2
21472 kPa | 1024.1 ± 1.2
21500 kPa | 1024.2 ± 1.2
21528 kPa | 1024.1 ± 1.2
21557 kPa | 1024.1 ± 1.2
21593 kPa | 1024.2 ± 1.2
21622 kPa | 1024.2 ± 1.2
21658 kPa | 1024.3 ± 1.2
21688 kPa | 1024.2 ± 1.2
21718 kPa | 1024.4 ± 1.2
21754 kPa | 1024.3 ± 1.2
21784 kPa | 1024.2 ± 1.2
21814 kPa | 1024.3 ± 1.2
21844 kPa | 1024.4 ± 1.2
21881 kPa | 1024.2 ± 1.2
21911 kPa | 1024.4 ± 1.2
21942 kPa | 1024.4 ± 1.2
21979 kPa | 1024.4 ± 1.2
22009 kPa | 1024.5 ± 1.2
22046 kPa | 1024.4 ± 1.2
22077 kPa | 1024.5 ± 1.2
22109 kPa | 1024.4 ± 1.2
22140 kPa | 1024.5 ± 1.2
22178 kPa | 1024.5 ± 1.2
22210 kPa | 1024.6 ± 1.2
22242 kPa | 1024.6 ± 1.2
22279 kPa | 1024.6 ± 1.2
22311 kPa | 1024.6 ± 1.2
22343 kPa | 1024.7 ± 1.2
22375 kPa | 1024.6 ± 1.2
22414 kPa | 1024.6 ± 1.2
22446 kPa | 1024.6 ± 1.2
22478 kPa | 1024.6 ± 1.2
22517 kPa | 1024.7 ± 1.2
22550 kPa | 1024.8 ± 1.2
22583 kPa | 1024.7 ± 1.2
22622 kPa | 1024.8 ± 1.2
22656 kPa | 1024.7 ± 1.2
22688 kPa | 1024.7 ± 1.2
22722 kPa | 1024.8 ± 1.2
22761 kPa | 1024.8 ± 1.2
22794 kPa | 1024.9 ± 1.2
22828 kPa | 1024.9 ± 1.2
22868 kPa | 1024.9 ± 1.2
22901 kPa | 1024.9 ± 1.2
22942 kPa | 1024.9 ± 1.2
22975 kPa | 1024.9 ± 1.2
23009 kPa | 1024.9 ± 1.2
23043 kPa | 1025.1 ± 1.2
23084 kPa | 1025 ± 1.2
23119 kPa | 1025.1 ± 1.2
23154 kPa | 1025 ± 1.2
23195 kPa | 1025 ± 1.2
23230 kPa | 1025.1 ± 1.2
23265 kPa | 1025.2 ± 1.2
23307 kPa | 1025.2 ± 1.2
23342 kPa | 1025.2 ± 1.2
23378 kPa | 1025.2 ± 1.2
23413 kPa | 1025.2 ± 1.2
23456 kPa | 1025.2 ± 1.2
23492 kPa | 1025.3 ± 1.2
23534 kPa | 1025.2 ± 1.2
23572 kPa | 1025.1 ± 1.2
23609 kPa | 1025.3 ± 1.2
23646 kPa | 1025.4 ± 1.2
23680 kPa | 1025.3 ± 1.2
23726 kPa | 1025.4 ± 1.2
23761 kPa | 1025.5 ± 1.2
23798 kPa | 1025.6 ± 1.2
23843 kPa | 1025.5 ± 1.2
23878 kPa | 1025.4 ± 1.2
23926 kPa | 1025.5 ± 1.2
23961 kPa | 1025.6 ± 1.2
23996 kPa | 1025.5 ± 1.2
24033 kPa | 1025.7 ± 1.2
24084 kPa | 1025.5 ± 1.2
24123 kPa | 1025.6 ± 1.2
24162 kPa | 1025.7 ± 1.2
24202 kPa | 1025.6 ± 1.2
24250 kPa | 1025.7 ± 1.2
24285 kPa | 1025.8 ± 1.2
24316 kPa | 1025.7 ± 1.2
24353 kPa | 1025.8 ± 1.2
24383 kPa | 1025.8 ± 1.2
